Test results reported in PMC6199279, “Design of Peptoid-peptide Macrocycles to Inhibit the β-catenin TCF Interaction in Prostate Cancer” (Nature Communications, 2018).
Numbered stars: 1 amine (or outer) side, 2 acyl side, 3 side chain; on linkers, the order of the positions; unused ones are H or OH. Square brackets hold non-standard residues; d marks the D form. Peptide text beside a SMILES is read from it. N(2-(2-PhOPh)Et)Gly = O=C(O)CNCCc1ccccc1Oc1ccccc1; Gly(N-3,5-(OMe)2-Ph) = COc1cc(NCC(=O)O)cc(OC)c1; X1 = COc1ccc([C@H](C)N(CC(=O)[*:2])[*:1])cc1; N((CH2)3OiPr)Gly = CC(C)OCCCNCC(=O)O

Columns and labels:
[1] = system: A549 (lung adenocarcinoma) cells; experiment: 2D proliferation (CellTiter-Fluor viability), A549; assay type: cell-based; conditions: Wnt-independent cell line, 5 days
[2] = system: AR luciferase reporter (3xARE); experiment: 3x-Androgen Response Element (ARE) luciferase reporter assay in LNCaP-abl cells; assay type: cell-based
Text: Using a TOP-Flash Wnt luciferase reporter, we tested the 12 oligomers identified from in silico modeling for inhibitory activity (Fig. 2b). […] We also employed a 3 × -Androgen Response Element (ARE) luciferase reporter to measure the effect on AR activity. […] As additional controls, we obtained previously developed, commercially available Wnt inhibitors and tested them in the Wnt luciferase assay (Supplementary Fig. 5).
(§1) We next characterized the dose response curves for compound 13 in the Wnt and AR luciferase reporters. The linear version of 13 (linear 13: NH2-|N-mpp, N-dmp, N-ipp, N-Smpe, N-Smpe, D-Ala|-OH) was used as a control compound. […] To test direct binding, we pre-formed dynamic light scattering (DLS) with β-catenin in the presence of vehicle, compound 13, and α-cyclodextrin. […] HEK293 cells were transiently transfected with a plasmid expressing full length, myc-tagged TCF4. After 48 h treatment with either vehicle (DMSO) or 10 µM 13, cells were lysed and myc-TCF4 protein was immunoprecipitated.
(§2) LNCaP-abl and LNCaP-95 cells were cultured in indicator free RPMI 1640 media (Life) supplemented with 10% charcoal stripped FBS, 1% pennicillin/streptomycin, and 1% L-Glutamine. HEK-293 Cells were cultured in DMEM media (Life) supplemented with 10%FBS and 1% pennicillin/streptomycin. A549 and U2OS cells were cultured in RPMI 1640 media (Life) and McCoy’s 5 A modified media (Life), respectively, both supplemented with 10%FBS and 1% pennicillin/streptomycin. LNCaP-abl, and LNCaP-95 cell lines were generous gifts from Z. Culig (Innsbruck Medical University, Austria) and J. Isaacs (Johns Hopkins University, Baltimore, MD), respectively. Cell lines were authenticated by STR profiling (Genetica Cell Line Testing; Burlington, NC). […] Both were measured using the ONE-Glo detection kit (Promega) and data is standardized to CellTiter-Fluor (Promega) viability readings to account for potential variations in well to well cell number. […] Total protein concentration in cell lysates were determined using Pierce Rapid Gold BCA Protein Assay Kit (Thermo). […]

[3] = target: T1, β-catenin:TCF4 protein interaction (Homo sapiens, UniProt P35222); experiment: Co-immunoprecipitation of myc-TCF4 and endogenous β-catenin in HEK293 cells; assay type: cell-based; conditions: HEK293 cells with myc-TCF4, 10 µM, 48 h, vs vehicle
T1 construct: host or cells: HEK293
T1 sequence (P35222 2-781 limits assumed): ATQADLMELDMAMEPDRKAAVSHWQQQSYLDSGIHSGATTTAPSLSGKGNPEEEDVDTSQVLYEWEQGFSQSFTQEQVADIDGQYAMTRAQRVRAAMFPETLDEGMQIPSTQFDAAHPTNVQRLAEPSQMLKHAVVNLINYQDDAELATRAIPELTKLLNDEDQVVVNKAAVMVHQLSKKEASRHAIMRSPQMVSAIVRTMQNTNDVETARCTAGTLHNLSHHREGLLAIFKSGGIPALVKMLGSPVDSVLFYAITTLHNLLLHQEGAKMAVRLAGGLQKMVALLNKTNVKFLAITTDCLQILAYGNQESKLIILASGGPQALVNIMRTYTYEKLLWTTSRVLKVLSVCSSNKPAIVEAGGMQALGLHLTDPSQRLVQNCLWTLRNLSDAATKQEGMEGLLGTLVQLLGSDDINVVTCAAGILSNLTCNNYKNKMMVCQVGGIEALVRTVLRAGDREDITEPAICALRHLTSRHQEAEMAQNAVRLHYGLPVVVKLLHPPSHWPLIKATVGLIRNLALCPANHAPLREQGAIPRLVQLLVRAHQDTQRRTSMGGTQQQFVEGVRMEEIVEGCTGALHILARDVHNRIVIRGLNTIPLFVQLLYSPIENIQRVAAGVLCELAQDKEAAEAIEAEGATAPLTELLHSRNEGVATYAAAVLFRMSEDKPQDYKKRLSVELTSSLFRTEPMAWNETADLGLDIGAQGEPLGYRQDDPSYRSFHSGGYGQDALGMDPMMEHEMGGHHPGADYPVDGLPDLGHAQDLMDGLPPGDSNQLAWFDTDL
Protocol: as §1
as §2, with “pennicillin/streptomycin.” for “pennicillin/streptomycin. LNCaP-abl, and LNCaP-95 cell lines were generous gifts from Z. Culig (Innsbruck Medical University, Austria) and J. Isaacs (Johns Hopkins University, Baltimore, MD), respectively. Cell lines were authenticated by STR profiling (Genetica Cell Line Testing; Burlington, NC).”

β-catenin = target: T2, β-catenin (Homo sapiens, UniProt P35222); experiment: Dynamic light scattering of β-catenin; assay type: binding; conditions: 10 µM compound vs 1% DMSO vehicle
T2 construct: His6-β-catenin armadillo domain, AA134-668; made in house; host or cells: E. coli BL21 DL3 (NEB)
T2 sequence (P35222 134-668): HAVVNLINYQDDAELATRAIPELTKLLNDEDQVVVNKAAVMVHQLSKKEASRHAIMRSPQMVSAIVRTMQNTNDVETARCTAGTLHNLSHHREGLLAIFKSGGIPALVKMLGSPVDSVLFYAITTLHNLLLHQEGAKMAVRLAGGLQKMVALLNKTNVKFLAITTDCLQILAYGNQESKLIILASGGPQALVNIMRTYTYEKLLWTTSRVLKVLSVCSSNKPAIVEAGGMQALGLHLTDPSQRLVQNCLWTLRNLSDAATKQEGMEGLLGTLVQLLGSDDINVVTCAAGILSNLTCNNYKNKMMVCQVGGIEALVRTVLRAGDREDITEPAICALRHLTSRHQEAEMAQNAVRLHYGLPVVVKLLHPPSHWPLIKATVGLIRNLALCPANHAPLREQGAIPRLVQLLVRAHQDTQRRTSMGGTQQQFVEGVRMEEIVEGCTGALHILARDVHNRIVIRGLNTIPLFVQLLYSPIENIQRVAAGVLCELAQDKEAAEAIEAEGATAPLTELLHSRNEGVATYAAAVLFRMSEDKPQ
Protocol: as §1

COc1ccc([C@H](C)N2CC(=O)N[C@H](C)C(=O)N(CCc3ccccc3Oc3ccccc3)CC(=O)N(c3cc(OC)cc(OC)c3)CC(=O)N(CCCOC(C)C)CC(=O)N([C@@H](C)c3ccc(OC)cc3)CC2=O)cc1 [Compound 13] (cyclo([dA][N(2-(2-PhOPh)Et)Gly][Gly(N-3,5-(OMe)2-Ph)][N((CH2)3OiPr)Gly][X1][X1]))
Effect on proliferation of A549 cells [1]: no effect | Inhibition of AR signaling (3xARE luciferase) ([2]; 10 µM compound, relative to vehicle): more effective | IC50 ([2]; 3xARE LNCaP-abl cells, 48 h compound, androgen-activated, read-out: IC50 for inhibition of the AR luciferase reporter): 1020 nM | β-catenin:TCF association (co-immunoprecipitated β-catenin) [3]: decreased | Shift in measured hydrodynamic radius of β-catenin (DLS) (β-catenin): significant shift
